The assay deals with IL-1β. In words: In vitro IL-1β inhibition in PMA-differentiated, LPS-primed, ATP-stimulated THP1 cells. The conditions noted are these: Homo sapiens, THP-1; THP1 monocytes differentiated with PMA, primed with 500 ng/ml LPS 4 hrs, compound 30 min, 5 mM ATP 1 hr; IL-1b in supernatant; read-out: in vitro IL-1β inhibitory activity IC50. It is filed as cell-based. The procedure: THP1 ([…]) monocytes were differentiated with PMA (Phorbol 12-myristate 13-acetate) (100 ng/ml) and incubated at 37° C. for 20 h in presence of 5% CO2. 2×10^5 differentiated cells were plated per well of 96 well tissue culture plates. The cells were primed using 500 ng/ml Lipopolysaccharide and incubating for 4 hrs under the same condition. The cells were then treated with various concentrations of the compounds for 30 min followed by treatment with 5 mM ATP for 1 hr. The supernatants were collected and analysed by IL-1b (Mabtech Cat #3415-1H-20) or TNF-a (Mabtech; Cat #3510-1H-20) detection kit. The data were analyzed using GraphPad Prism V7.0. Dose Response Curve (DRC) was constructed to determine the IC50 value by fitting percentage cell survival data to the GraphPad Prism using nonlinear regression analysis.

Structures are written as SMILES. pIC50: −log10 of the molar value.

Take `CC(C)(O)c1ccc(S(=O)(=NC#N)NC(=O)Nc2c3c(cc4c2CCC4)CCC3)cc1` (centres unmarked) [Example 17, N′-cyano-N-((1,2,3,5,6,7-hexahydro-s-indacen-4-yl)carbamoyl)-4-(2-hydroxypropan-2-yl)benzenesulfonimidamide]: the pIC50 (commonly −log10 of the IC50, conventionally taken in molar units) is 7.92. Turning to `N#CN=S(=O)(NC(=O)Nc1c2c(cc3c1CCC3)CCC2)c1cccc([N+](=O)[O-])c1` (centres unmarked) [Example 18, N′-cyano-N-((1,2,3,5,6,7-hexahydro-s-indacen-4-yl)carbamoyl)-3-nitrobenzenesulfonimidamide], the pIC50 is 7.82. As for `COc1ccc(S(=O)(=NC#N)NC(=O)Nc2c3c(cc4c2CCC4)CCC3)cc1` (centres unmarked) [Example 19, N′-cyano-N-((1,2,3,5,6,7-hexahydro-s-indacen-4-yl)carbamoyl)-4-methoxybenzenesulfonimidamide], the pIC50 is 7.64.

With `N#CN=S(=O)(NC(=O)Nc1c2c(cc3c1CCC3)CCC2)c1ccc(F)cc1` (centres unmarked) [Example 21, N′-cyano-4-fluoro-N-((1,2,3,5,6,7-hexahydro-s-indacen-4-yl)carbamoyl)benzenesulfonimidamide], the negative logarithm of the IC50 (pIC50) was 7.21. As for `COc1ccc(S(=O)(=NC#N)NC(=O)Nc2c3c(cc4c2CCC4)CCC3)cn1` (centres unmarked) [Example 24, N′-cyano-N-((1,2,3,5,6,7-hexahydro-s-indacen-4-yl)carbamoyl)-6-methoxypyridine-3-sulfonimidamide], the figure is 7.47. As for `N#CN=S(=O)(NC(=O)Nc1c2c(cc3c1CCC3)CCC2)c1ccc(Cl)cc1` (centres unmarked) [Example 26, 4-chloro-N′-cyano-N-((1,2,3,5,6,7-hexahydro-s-indacen-4-yl)carbamoyl)benzenesulfonimidamide], the figure is 7.64; as for `N#CN=S(=O)(NC(=O)Nc1c2c(cc3c1CCC3)CCC2)c1ccc(Br)cc1` (centres unmarked) [Example 27, 4-bromo-N′-cyano-N-((1,2,3,5,6,7-hexahydro-s-indacen-4-yl)carbamoyl)benzenesulfonimidamide], 7.57. As for `N#CN=S(=O)(NC(=O)Nc1c2c(cc3c1CCC3)CCC2)c1ccc(C(F)(F)F)cc1` (centres unmarked) [Example 29, N′-cyano-N-((1,2,3,5,6,7-hexahydro-s-indacen-4-yl)carbamoyl)-4-(trifluoromethyl)-benzenesulfonimidamide], the figure is 7.49; as for `CC(C)(O)c1cccc(S(=O)(=NC#N)NC(=O)Nc2c3c(cc4c2CCC4)CCC3)c1` (centres unmarked) [Example 34, N′-cyano-N-((1,2,3,5,6,7-hexahydro-s-indacen-4-yl)carbamoyl)-3-(2-hydroxypropan-2-yl)benzenesulfonimidamide], 8.52; as for `N#CN=S(=O)(NC(=O)Nc1c2c(cc3c1CCC3)CCC2)c1ccc(C2(O)COC2)cc1` (centres unmarked) [Example 35, N′-cyano-N-((1,2,3,5,6,7-hexahydro-s-indacen-4-yl)carbamoyl)-4-(3-hydroxyoxetan-3-yl)benzenesulfonimidamide], 7.89.

Consider `C=C(C)c1coc(S(=O)(=NC#N)NC(=O)Nc2c3c(cc4c2CCC4)CCC3)c1` (centres unmarked) [Example 36, N′-cyano-N-((1,2,3,5,6,7-hexahydro-s-indacen-4-yl)carbamoyl)-4-(prop-1-en-2-yl)furan-2-sulfonimidamide], for which the negative-log IC50 (pIC50) was 7.49.

`N#CN=S(=O)(NC(=O)Nc1c2c(cc3c1CCC3)CCC2)c1ccc(Br)s1` (centres unmarked) [Example 37, 5-bromo-N′-cyano-N-((1,2,3,5,6,7-hexahydro-s-indacen-4-yl)carbamoyl)thiophene-2-sulfonimidamide]: the negative-log IC50 (pIC50) is 8.25. Consider `COc1cccc(S(=O)(=NC#N)NC(=O)Nc2c3c(cc4c2CCC4)CCC3)c1` (centres unmarked) [Example 38, N′-cyano-N-((1,2,3,5,6,7-hexahydro-s-indacen-4-yl)carbamoyl)-3-methoxybenzenesulfonimidamide], for which the negative logarithm of the IC50 (pIC50) is 7.77. For `CC(C)(O)c1coc(S(=O)(=NC#N)NC(=O)Nc2c3c(cc4c2CCC4)CCC3)c1` (centres unmarked) [Example 39, N′-cyano-N-((1,2,3,5,6,7-hexahydro-s-indacen-4-yl)carbamoyl)-4-(2-hydroxypropan-2-yl)furan-2-sulfonimidamide], the pIC50 was 8.48.

For `N#CN=S(=O)(NC(=O)Nc1c2c(cc3c1CCC3)CCC2)c1ccc2c(c1)OCCO2` (centres unmarked) [Example 40, N′-cyano-N-((1,2,3,5,6,7-hexahydro-s-indacen-4-yl)carbamoyl)-2,3-dihydrobenzo[b][1,4]dioxine-6-sulfonimidamide], the pIC50 was 7.89. As for `CC(C)(O)c1ccc(S(=O)(=NC#N)NC(=O)Nc2c3c(cc4c2CCC4)CCC3)s1` (centres unmarked) [Example 41, N′-cyano-N-((1,2,3,5,6,7-hexahydro-s-indacen-4-yl)carbamoyl)-5-(2-hydroxypropan-2-yl)thiophene-2-sulfonimidamide], the pIC50 was 8.32.

On to `Cc1ccc(F)c(S(=O)(=NC#N)NC(=O)Nc2c3c(cc4c2CCC4)CCC3)c1` (centres unmarked) [Example 42, N′-cyano-2-fluoro-N-((1,2,3,5,6,7-hexahydro-s-indacen-4-yl)carbamoyl)-5-methylbenzene-sulfonimidamide], for which the negative logarithm of the IC50 (pIC50) is 8.62. The result for `N#CN=S(=O)(NC(=O)Nc1c2c(cc3c1CCC3)CCC2)c1cccc(C(O)(C(F)(F)F)C(F)(F)F)c1` (centres unmarked) [Example 43, N′-cyano-3-(1,1,1,3,3,3-hexafluoro-2-hydroxypropan-2-yl)-N-((1,2,3,5,6,7-hexahydro-s-indacen-4-yl)carbamoyl)benzenesulfonimidamide] reads 7.57; that for `N#CN=S(=O)(NC(=O)Nc1c2c(cc3c1CCC3)CCC2)c1cc(F)cc(F)c1` (centres unmarked) [Example 44, N′-cyano-3,5-difluoro-N-((1,2,3,5,6,7-hexahydro-s-indacen-4-yl)carbamoyl)benzenesulfonimidamide], 7.20. For `N#CN=S(=O)(NC(=O)Nc1c2c(cc3c1CCC3)CCC2)c1ccc(F)cc1F` (centres unmarked) [Example 45, N′-cyano-2,4-difluoro-N-((1,2,3,5,6,7-hexahydro-s-indacen-4-yl)carbamoyl)benzenesulfonimidamide], the pIC50 is 7.64. `N#CN=S(=O)(Cc1ccccc1)NC(=O)Nc1c2c(cc3c1CCC3)CCC2` (centres unmarked) [Example 48, N′-cyano-N-((1,2,3,5,6,7-hexahydro-s-indacen-4-yl)carbamoyl)-1-phenylmethanesulfonimidamide]: the pIC50 was 8.46. Take `N#CN=S(=O)(NC(=O)Nc1c2c(cc3c1CCC3)CCC2)c1cccs1` (centres unmarked) [Example 51, N′-cyano-N-((1,2,3,5,6,7-hexahydro-s-indacen-4-yl)carbamoyl)thiophene-2-sulfonimidamide]: the pIC50 is 7.72. As for `COc1ccc(S(=O)(=NC#N)NC(=O)Nc2c3c(cc4c2CCC4)CCC3)cc1OC` (centres unmarked) [Example 52, N′-cyano-N-((1,2,3,5,6,7-hexahydro-s-indacen-4-yl)carbamoyl)-3,4-dimethoxybenzene-sulfonimidamide], the figure is 8.36; as for `Cc1cccc(S(=O)(=NC#N)NC(=O)Nc2c3c(cc4c2CCC4)CCC3)n1` (centres unmarked) [Example 53, N′-cyano-N-((1,2,3,5,6,7-hexahydro-s-indacen-4-yl)carbamoyl)-6-methylpyridine-2-sulfonimidamide], 7.35; as for `N#CN=S(=O)(NC(=O)Nc1c2c(cc3c1CCC3)CCC2)c1cccc(F)c1` (centres unmarked) [Example 58, N′-cyano-3-fluoro-N-((1,2,3,5,6,7-hexahydro-s-indacen-4-yl)carbamoyl)benzenesulfonimidamide], 7.42. For `CC(C)(O)c1cc(S(=O)(=NC#N)NC(=O)Nc2c3c(cc4c2CCC4)CCC3)ccc1F` (centres unmarked) [Example 63, N′-cyano-4-fluoro-N-((1,2,3,5,6,7-hexahydro-s-indacen-4-yl)carbamoyl)-3-(2-hydroxypropan-2-yl)benzenesulfonimidamide], the pIC50 is 8.11.

On to `CC(C)(O)c1ccc(F)c(S(=O)(=NC#N)NC(=O)Nc2c3c(cc4c2CCC4)CCC3)c1` (centres unmarked) [Example 64, N′-cyano-2-fluoro-N-((1,2,3,5,6,7-hexahydro-s-indacen-4-yl)carbamoyl)-5-(2-hydroxypropan-2-yl)benzenesulfonimidamide], for which the negative logarithm of the IC50 (pIC50) is 8.11. For the compound `CC(C)(O)c1cncc(S(=O)(=NC#N)NC(=O)Nc2c3c(cc4c2CCC4)CCC3)c1` (centres unmarked) [Example 65, N′-cyano-N-((1,2,3,5,6,7-hexahydro-s-indacen-4-yl)carbamoyl)-5-(2-hydroxypropan-2-yl)pyridine-3-sulfonimidamide], the pIC50 is 8.90.

As for `N#CN=S(=O)(Cc1ccc(C#N)cc1)NC(=O)Nc1c2c(cc3c1CCC3)CCC2` (centres unmarked) [Example 66, N′-cyano-1-(4-cyanophenyl)-N-((1,2,3,5,6,7-hexahydro-s-indacen-4-yl)carbamoyl)-methanesulfonimidamide], the pIC50 is 8.40.

Source of the values: US11236045B2, “Substituted sulfoximine compounds” (CADILA HEALTHCARE LIMITED, priority 2017, dated 2022).
